{"source": "paper PMC6722010", "about": "(Molecular pharmaceutics, 2019)", "key": {"[1]": {"assay": "solubility", "assay_type": "physicochemical", "conditions": "water / buffer"}, "[2]": {"tested_on": "PSMA", "assay": "in vivo 68Ga-PSMA-11 blocking, PET imaging and biodistribution", "conditions": "22Rv1 xenograft mice; organs gamma counted"}}}
{"smiles": "N[C@@H](Cc1ccc(B(O)O)cc1)C(=O)O", "note": "[BPA, 4-borono-L-phenylalanine]", "values": [{"measurement": "solubility", "setting": "[1]", "result": "low solubility in buffer"}, {"measurement": "68Ga-PSMA-11 biodistribution, uptake in kidney, spleen and tumor", "setting": "[2]", "result": "did not significantly block uptake"}]}
